# US4639452A, “Arylic derivatives of piperazine, the method of preparing same and their application in therapeutics” (Delalande S.A., priority 1982, dated 1987)
# Assays:
# [1] = system: male SWISS-WEBSTER mice; test: mnesic retention test of exploratory activity (APELAB ACTIMETER); format: in vivo; conditions: re-measured after a week; for inhibition in vivo at 10 mg/kg: dose 10 mg/kg i.v.
# [2] = approximate acute toxicity (MILLER and TAINTER); conditions: mouse, in vivo, mice
# Method: The approximate acute toxicity is determined according to the method described by MILLER and TAINTER in Proc. Soc. Exp. Biol. Med. 57, 261 (1944).
# [3] = Mus musculus, iv, 168 h, dose 1 mg/kg i.v., read-out: Mnesic test: % reduction of the exploratory activity
# [4] = Mus musculus, iv, 168 h, dose 3 mg/kg i.v., read-out: Mnesic test: % reduction of the exploratory activity
# [5] = Mus musculus, iv, 168 h, read-out: Mnesic test: % reduction of the exploratory activity
compound,measurement,setting,value
O=C(/C=C/c1ccc2c(c1)OCO2)N1CCN(CC(=O)N2CCCC2)CC1 [compound 37],inhibition in vivo at 1 mg/kg,[1]; [3],25.2%
same,mortality,"[2]; ip, dose 400 mg/kg i.p.",0%
COc1ccc(OC)c(/C=C/C(=O)N2CCN(CC(=O)N3CCCC3)CC2)c1 [compound 49],inhibition in vivo at 1 mg/kg,[1]; [3],15.7%
same,mortality,"[2]; iv, dose 205 mg/kg i.v.",50%
COc1cc(/C=C/C(=O)N2CCN(CC(=O)NCc3cc(OC)c(OC)c(OC)c3)CC2)cc(OC)c1OC [compound 29],inhibition in vivo at 3 mg/kg,[1]; [4],9.9%
same,mortality,"[2]; iv, dose 200 mg/kg i.v.",0%
COc1cc(/C=C/C(=O)N2CCN(CC(=O)N3CCCC3)CC2)cc(OC)c1 [compound 43],inhibition in vivo at 10 mg/kg,[1]; [5],23.8%
"trans-1-(3,4,5-trimethoxy)cinnamoyl 4-(2-hydroxy)ethyl piperazine maleate [Code number 2]",Mnesic test: % reduction of the exploratory activity,[1]; dose 3 mg/kg i.v.,17.5%
O=C(/C=C/c1ccc(F)cc1)N1CCN(CC(=O)N2CCCC2)CC1 [compound 38],inhibition in vivo at 3 mg/kg,[1]; [4],28.6%
same,mortality,"[2]; iv, dose 200 mg/kg i.v.",10%
O=C(/C=C/c1ccc(Cl)c(Cl)c1)N1CCN(CC(=O)N2CCCC2)CC1 [compound 40],inhibition in vivo at 3 mg/kg,[1]; [4],28.9%
same,mortality,"[2]; iv, dose 120 mg/kg i.v.",50%
COc1ccccc1/C=C/C(=O)N1CCN(CC(=O)N2CCCC2)CC1 [compound 48],inhibition in vivo at 30 mg/kg,"[1]; Mus musculus, iv, 168 h, dose 30 mg/kg i.v., read-out: Mnesic test: % reduction of the exploratory activity",26.1%
same,mortality,"[2]; iv, dose 200 mg/kg i.v.",0%
O=C(/C=C/c1ccc2c(c1)OCO2)N1CCN(CC(=O)N2CCCCC2)CC1 [compound 55],inhibition in vivo at 3 mg/kg,[1]; [4],18.7%
"trans-1-(3,4-methylenedioxy)cinnamoyl 4-pyrrolidinocarbonyl piperazine, hydrochloride [Code number 37]",Mnesic test: % reduction of the exploratory activity,[1]; dose 1 mg/kg i.v.,14.7%
O=C(/C=C/c1ccccc1)N1CCN(CC(=O)N2CCCC2)CC1 [compound 36],inhibition in vivo at 10 mg/kg,[1]; [5],18.4%
same,mortality,"[2]; iv, dose 200 mg/kg i.v.",0%
COc1cc(/C=C/C(=O)N2CCN(CC(=O)NC3CCCC3)CC2)cc(OC)c1OC [compound 23],inhibition in vivo at 3 mg/kg,[1]; [4],18.4%
same,mortality,"[2]; iv, dose 200 mg/kg i.v.",0%
O=C(/C=C/c1ccc(Cl)cc1)N1CCN(CC(=O)N2CCCC2)CC1 [compound 47],inhibition in vivo at 1 mg/kg,[1]; [3],26.5%
same,mortality,"[2]; iv, dose 200 mg/kg i.v.",0%
O=C(/C=C/c1ccc(Cl)cc1)N1CCN(CC(=O)N2CCCCC2)CC1 [compound 56],inhibition in vivo at 3 mg/kg,[1]; [4],23.5%
COc1cc(/C=C/C(=O)N2CCN(CC(=O)NC(C)C)CC2)ccc1O [compound 26],inhibition in vivo at 10 mg/kg,[1]; [5],14.3%
"COc1cc(/C=C/C(=O)N2CCN(CC(N)=O)CC2)cc(OC)c1OC [Code number 11, trans-1-(3,4,5-trimethoxy)cinnamoyl 4-aminocarbonylmethyl piperazine]",inhibition in vivo at 3 mg/kg,[1]; [4],28.4%
same,mortality,"[2]; iv, dose 200 mg/kg i.v.",0%
